One experiment has as its system Staphylococcus aureus. Nature of the experiment: Antibacterial activity against Staphylococcus aureus by Kirby-Bauer disk diffusion assay. The class given is functional. For orientation: A growth-free zone around the sample is the usual read-out of agar diffusion tests.
Experiment [1] has as its system Saccharopolyspora erythraea. Briefly: Antibacterial activity against Saccharopolyspora erythraea by Kirby-Bauer disk diffusion assay.
Another experiment concerns NCI60. Briefly: (§1) Cytotoxicity against human NCI60 cells assessed as growth inhibition by SRB assay. The class given is functional. On the technique in general: Sulforhodamine B stains cellular protein and so reports cell mass.
The test system of another experiment is CCRF-CEM. Nature of the experiment: Cytotoxicity against human CCRF-CEM cells assessed as growth inhibition by SRB assay. In kind it is functional.
A short description of experiment [2]: as §1. The class given is functional.

SMILES strings stand for the structures. The source made the active and inactive calls. The calls are words filed in the database; no cut-off is given here. Some results are limits rather than exact numbers.

In general, GI50 refers to the concentration giving 50% growth inhibition. For `C/C=C/[C@@H]1C=C[C@@H]2C[C@H](C)CC[C@H]2[C@]1(C)/C(O)=C1/C(=O)[C@H](CO)N(C)C1=O`, the MIC in the experiment with Staphylococcus aureus was less than 1.25 µg; in experiment [1], 2.5 µg. The “growth inhibition (GI)” value with NCI60 is “Active”. For the same molecule, in the experiment with CCRF-CEM, the GI50 worked out at 0.144 µM.
For the molecule `C/C=C/[C@@H]1C=C[C@@H]2C[C@H](CO)CC[C@H]2[C@]1(C)C(=O)C1=C(O)[C@H](CO)NC1=O`, the outcome (in the experiment on Staphylococcus aureus; in experiment [1]) was inactive. Also, the GI50 in experiment [2] is more than 20 µM.
With `C/C=C/C1C=C[C@@H]2C[C@H](CO)CC[C@H]2[C@]1(C)C(=O)C1=C(O)[C@H](CO)N(C)C1=O` (some centres undefined), the GI50 in experiment [2] is more than 20 µM.
With `C/C=C/[C@@H]1C=C[C@@H]2C[C@@](C)(O)CC[C@H]2[C@]1(C)C(=O)C1=C(O)[C@H](CO)N(C)C1=O`, in the experiment on Staphylococcus aureus, the “%max” value was “inactive”. The result in experiment [1] was inactive. Moreover, the GI50 in experiment [2] is more than 20 µM.
`CN1C(=O)C(C(=O)[C@@]2(C)[C@@H]3CC[C@@H](CO)C[C@H]3C=C[C@H]2/C=C/CO)=C(O)C1CO` (mixture of isomers): the outcome (in the experiment with Staphylococcus aureus; in experiment [1]) was inactive. Besides, the GI50 in experiment [2] was more than 20 µM.

The record behind these values is ChEMBL document CHEMBL3102823, “Tetramic acid analogues produced by coculture of Saccharopolyspora erythraea with Fusarium pallidoroseum” (2014).
